US12498382B2, “Biomarkers for vitiligo” (INCYTE CORPORATION, priority 2019, dated 2025)

System: HaCaT cells
Assay: Normalized expression of target genes in HaCaT cells stimulated with TNFα and IFNγ in presence/absence of JAK inhibitors (QuantiGene Plex)
Format: cell-based, human
Description: Transformed human keratinocyte (HaCaT) cells were purchased from AddexBio (Catalog #T0020001) and cultured as outlined in Example 5. […] After 48 hours, cell culture media was removed from 24 well plates and replaced with 250 uL of media containing serial diluted drug, then incubated for 15 minutes at 37° C./5% CO2. After drug incubation, 250 uL of combinatory stimulation containing Recombinant Human Interferon gamma (R&D Systems, Catalog #285-IF-100) and Recombinant Human Tumor Necrosis Factor alpha (R&D Systems, Catalog #210-TA-020) was added to plates. The final concentration of Recombinant Human Interferon gamma and Recombinant Human Tumor Necrosis Factor alpha was 25 ng/mL of each cytokine. Cytokine stimulation added to wells containing drug brought the final concentrations for each drug treatment to 25 nM, 50 nM, 100 nM, and 200 nM. Treated plates were mixed by gentle agitation for 30 seconds then incubated for 24 hours at 37° C./5% CO2. At the end of the 24 hour incubation media was immediately removed from each plate.
RNA was isolated from HaCaT cells using the QuantiGene Plex Assay reagents and protocols (Affymetrix, Catalog #QGP-232-M18042302) according to the manufacturer's guidelines. Cells were washed with 1×DPBS then lysed by incubation with provided QuantiGene lysis buffer for 30 minutes at 50-55° C. Cell lysates were incubated for 18-24 hours at 55° C. with capture beads and probe set designed to specifically hybridize to mRNA from targets of interest. Genes included housekeeping genes (e.g., HPRT1 and GAPDH) used for the normalization of the results. After the 18-24 hour incubation signal was amplified utilizing branched DNA methodologies, according to the manufacturer's procedures (Affymetrix, Catalog #QGP-232-M18042302). After hybridization and wash steps assay plate was read on the Luminex 200 and data were expressed as Net Median Fluorescence Intensity. Data was then normalized to the Net Median Fluorescence Intensity of the housekeeping gene HPRT1 (Table 14).

[1] = TNFα+IFNγ 25 ng/mL, Drug Conc 25 nM
[2] = TNFα+IFNγ 25 ng/mL, Drug Conc 50 nM
[3] = TNFα+IFNγ 25 ng/mL, Drug Conc 100 nM
[4] = TNFα+IFNγ 25 ng/mL, Drug Conc 200 nM
[5] = no stimulation, Drug Conc 200 nM

## N#CCC1(n2cc(-c3ncnc4[nH]ccc34)cn2)CN(C2CCN(C(=O)c3ccnc(C(F)(F)F)c3F)CC2)C1 [Cpd B, {1-{1-[3-fluoro-2-(trifluoromethyl)isonicotinoyl]piperidin-4-yl}-3[4-(7H-pyrrolo[2,3-d]pyrimidin-4-yl)-1H-pyrazol-1-yl]azetidin-3-yl}acetonitrile]
[1]
  AREG normalized expression MFI: 737.85 ± 22.1
  CCL17 normalized expression MFI: 3.37 ± 0.54
  CCL18 normalized expression MFI: 2.12 ± 0.32
  FLG normalized expression MFI: 71.57 ± 9.14
  IL6 normalized expression MFI: 130.24 ± 3.84
  IL8 normalized expression MFI: 381.74 ± 10.25
  IL17A normalized expression MFI: 0.88 ± 0.13
  IL22 normalized expression MFI: 1.21 ± 0.24
  IL23A normalized expression MFI: 43.92 ± 1.89
  IL31 normalized expression MFI: 1.33 ± 0.33
  ILIA normalized expression MFI: 1288.02 ± 20
  IYK2 normalized expression MFI: 292.92 ± 7.99
  JAK1 normalized expression MFI: 216.23 ± 6.41
  JAK2 normalized expression MFI: 109.39 ± 2.8
  JAK3 normalized expression MFI: 0.84 ± 0.12
  LOR normalized expression MFI: 43.2 ± 14.11
  S100A7 normalized expression MFI: 5.45 ± 1.02
  S100A12 normalized expression MFI: 1.21 ± 0.16
  SERPINB3 normalized expression MFI: 3.16 ± 0.43
  SERPINB4 normalized expression MFI: 4.23 ± 0.7
  STAT1 normalized expression MFI: 2861.37 ± 204.56
  STAT3 normalized expression MFI: 1466.73 ± 66.75
  STAT4 normalized expression MFI: 6 ± 0.46
  STAT5A normalized expression MFI: 23.69 ± 1.63
  STAT5B normalized expression MFI: 40.74 ± 2.3
  STAT6 normalized expression MFI: 1004.82 ± 23.76
  TNF normalized expression MFI: 28.04 ± 1.24
  VEGFA normalized expression MFI: 553.23 ± 11.38
[2]
  AREG normalized expression MFI: 701.57 ± 12.75
  CCL17 normalized expression MFI: 3.06 ± 0.34
  CCL18 normalized expression MFI: 2.2 ± 0.35
  FLG normalized expression MFI: 74.31 ± 8.77
  IL6 normalized expression MFI: 122.69 ± 4.36
  IL8 normalized expression MFI: 376.41 ± 13.16
  IL17A normalized expression MFI: 0.92 ± 0.14
  IL22 normalized expression MFI: 1.15 ± 0.18
  IL23A normalized expression MFI: 45.85 ± 2.3
  IL31 normalized expression MFI: 1.22 ± 0.29
  ILIA normalized expression MFI: 1258.76 ± 23.63
  IYK2 normalized expression MFI: 287.31 ± 11.08
  JAK1 normalized expression MFI: 210.42 ± 10.89
  JAK2 normalized expression MFI: 101 ± 2.26
  JAK3 normalized expression MFI: 0.83 ± 0.15
  LOR normalized expression MFI: 43.96 ± 15.87
  S100A7 normalized expression MFI: 7.08 ± 1.99
  S100A12 normalized expression MFI: 1.04 ± 0.15
  SERPINB3 normalized expression MFI: 2.3 ± 0.34
  SERPINB4 normalized expression MFI: 3.76 ± 0.66
  STAT1 normalized expression MFI: 2855.28 ± 166.89
  STAT3 normalized expression MFI: 1437.28 ± 60.69
  STAT4 normalized expression MFI: 6.22 ± 0.42
  STAT5A normalized expression MFI: 22.32 ± 2.16
  STAT5B normalized expression MFI: 42.9 ± 2.44
  STAT6 normalized expression MFI: 990.05 ± 21.06
  TNF normalized expression MFI: 28.66 ± 2.58
  VEGFA normalized expression MFI: 545.93 ± 9.71
[3]
  AREG normalized expression MFI: 731.24 ± 25.4
  CCL17 normalized expression MFI: 2.87 ± 0.33
  CCL18 normalized expression MFI: 2.01 ± 0.44
  FLG normalized expression MFI: 74.99 ± 8.16
  IL6 normalized expression MFI: 111.07 ± 4.74
  IL8 normalized expression MFI: 387.33 ± 19.5
  IL17A normalized expression MFI: 0.85 ± 0.15
  IL22 normalized expression MFI: 1 ± 0.17
  IL23A normalized expression MFI: 53.05 ± 3.22
  IL31 normalized expression MFI: 1.04 ± 0.31
  ILIA normalized expression MFI: 1162.35 ± 23.34
  IYK2 normalized expression MFI: 284.15 ± 9.62
  JAK1 normalized expression MFI: 205.03 ± 11.49
  JAK2 normalized expression MFI: 94.5 ± 2.65
  JAK3 normalized expression MFI: 0.92 ± 0.13
  LOR normalized expression MFI: 31.4 ± 10.44
  S100A7 normalized expression MFI: 3.83 ± 1.02
  S100A12 normalized expression MFI: 1 ± 0.17
  SERPINB3 normalized expression MFI: 2.2 ± 0.35
  SERPINB4 normalized expression MFI: 2.87 ± 0.48
  STAT1 normalized expression MFI: 2783.68 ± 179.19
  STAT3 normalized expression MFI: 1373.34 ± 55.51
  STAT4 normalized expression MFI: 6.21 ± 0.48
  STAT5A normalized expression MFI: 20.87 ± 2.1
  STAT5B normalized expression MFI: 40.75 ± 2.41
  STAT6 normalized expression MFI: 987.64 ± 15.75
  TNF normalized expression MFI: 29.5 ± 2.82
  VEGFA normalized expression MFI: 524.82 ± 13.65
[4]
  AREG normalized expression MFI: 730.41 ± 24.58
  CCL17 normalized expression MFI: 3.13 ± 0.48
  CCL18 normalized expression MFI: 1.68 ± 0.32
  FLG normalized expression MFI: 87.37 ± 10.99
  IL6 normalized expression MFI: 93.03 ± 3.25
  IL8 normalized expression MFI: 377.69 ± 20.45
  IL17A normalized expression MFI: 0.91 ± 0.17
  IL22 normalized expression MFI: 1.01 ± 0.19
  IL23A normalized expression MFI: 59.53 ± 3.83
  IL31 normalized expression MFI: 1.14 ± 0.32
  ILIA normalized expression MFI: 1126.94 ± 26.22
  IYK2 normalized expression MFI: 277.52 ± 8.67
  JAK1 normalized expression MFI: 195.97 ± 10.45
  JAK2 normalized expression MFI: 89.16 ± 3.43
  JAK3 normalized expression MFI: 0.79 ± 0.15
  LOR normalized expression MFI: 38.46 ± 14.1
  S100A7 normalized expression MFI: 5.73 ± 1.59
  S100A12 normalized expression MFI: 1.14 ± 0.16
  SERPINB3 normalized expression MFI: 2.21 ± 0.44
  SERPINB4 normalized expression MFI: 3.19 ± 0.7
  STAT1 normalized expression MFI: 2850.04 ± 177.51
  STAT3 normalized expression MFI: 1400.77 ± 58.44
  STAT4 normalized expression MFI: 6.27 ± 0.56
  STAT5A normalized expression MFI: 19.2 ± 1.94
  STAT5B normalized expression MFI: 41 ± 3.46
  STAT6 normalized expression MFI: 985.17 ± 29.31
  TNF normalized expression MFI: 28.31 ± 2.97
  VEGFA normalized expression MFI: 516.11 ± 14.7
[5]
  AREG normalized expression MFI: 260.61 ± 14.67
  CCL17 normalized expression MFI: 1.56 ± 0.38
  CCL18 normalized expression MFI: 1.49 ± 0.37
  FLG normalized expression MFI: 256.93 ± 36.45
  IL6 normalized expression MFI: 4.7 ± 0.32
  IL8 normalized expression MFI: 61.71 ± 4.86
  IL17A normalized expression MFI: 0.46 ± 0.1
  IL22 normalized expression MFI: 0.61 ± 0.13
  IL23A normalized expression MFI: 11.41 ± 1.43
  IL31 normalized expression MFI: 0.72 ± 0.18
  ILIA normalized expression MFI: 92.67 ± 5.54
  IYK2 normalized expression MFI: 217.28 ± 14.28
  JAK1 normalized expression MFI: 177.97 ± 14.91
  JAK2 normalized expression MFI: 25.21 ± 1.12
  JAK3 normalized expression MFI: 0.68 ± 0.17
  LOR normalized expression MFI: 23.78 ± 7.16
  S100A7 normalized expression MFI: 4.94 ± 1.59
  S100A12 normalized expression MFI: 0.8 ± 0.13
  SERPINB3 normalized expression MFI: 2.25 ± 0.49
  SERPINB4 normalized expression MFI: 3.39 ± 0.89
  STAT1 normalized expression MFI: 529.16 ± 21.86
  STAT3 normalized expression MFI: 732.19 ± 23.03
  STAT4 normalized expression MFI: 4.28 ± 0.61
  STAT5A normalized expression MFI: 1.75 ± 0.44
  STAT5B normalized expression MFI: 58.85 ± 6.21
  STAT6 normalized expression MFI: 740.11 ± 34.98
  TNF normalized expression MFI: 2.58 ± 0.57
  VEGFA normalized expression MFI: 211.13 ± 12.18
